Assay results published in publication PMC3961306, “Comparison of the Cancer Gene Targeting and Biochemical Selectivities of All Targeted Kinase Inhibitors Approved for Clinical Use” (PLoS ONE, 2014).

How the values were obtained:
Assay in all cases: Kinase profiling in a biochemical assay panel (mobility shift assays and ELISA), %-inhibition at 1 μM; selectivity entropy
[1] = target: panel of more than 300 wild-type and mutant kinases (313 kinase panel) (Homo sapiens, UniProt O75676); settings: kinase MSK2; 1 μM
[2] = target: panel of more than 300 wild-type and mutant kinases (313 kinase panel) (Homo sapiens, UniProt P07333); settings: kinase FMS; compound at 1 μM
[3] = target: panel of more than 300 wild-type and mutant kinases (313 kinase panel) (Homo sapiens, UniProt P16591); settings: kinase FER; compound at 1 μM
Chain of panel of more than 300 wild-type and mutant kinases (313 kinase panel) (Homo sapiens, UniProt P16591) (P16591 whole entry, stated change not applied): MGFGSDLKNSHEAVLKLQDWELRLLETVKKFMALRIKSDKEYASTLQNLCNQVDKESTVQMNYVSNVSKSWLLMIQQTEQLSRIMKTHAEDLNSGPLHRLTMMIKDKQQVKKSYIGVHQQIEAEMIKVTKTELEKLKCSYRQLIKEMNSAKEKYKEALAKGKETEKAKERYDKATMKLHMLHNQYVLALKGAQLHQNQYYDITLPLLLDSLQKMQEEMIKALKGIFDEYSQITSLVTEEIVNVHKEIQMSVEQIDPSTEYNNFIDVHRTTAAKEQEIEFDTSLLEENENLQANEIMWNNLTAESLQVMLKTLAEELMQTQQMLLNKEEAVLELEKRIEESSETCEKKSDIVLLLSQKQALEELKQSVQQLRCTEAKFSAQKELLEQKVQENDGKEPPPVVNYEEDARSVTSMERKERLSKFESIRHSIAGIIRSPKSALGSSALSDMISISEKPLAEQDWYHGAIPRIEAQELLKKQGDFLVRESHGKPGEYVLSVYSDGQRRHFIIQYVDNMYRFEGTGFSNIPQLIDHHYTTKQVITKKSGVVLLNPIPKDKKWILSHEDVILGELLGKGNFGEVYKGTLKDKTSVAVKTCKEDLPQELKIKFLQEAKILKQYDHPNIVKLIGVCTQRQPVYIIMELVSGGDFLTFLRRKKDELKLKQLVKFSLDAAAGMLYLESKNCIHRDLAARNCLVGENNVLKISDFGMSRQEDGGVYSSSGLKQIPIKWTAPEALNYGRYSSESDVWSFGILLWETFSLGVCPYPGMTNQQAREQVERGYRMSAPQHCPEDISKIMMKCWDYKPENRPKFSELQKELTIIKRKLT

[4] = target: panel of more than 300 wild-type and mutant kinases (313 kinase panel) (Homo sapiens, UniProt P22455, N535K); settings: kinase FGFR4(N535K); compound at 1 μM
Chain of panel of more than 300 wild-type and mutant kinases (313 kinase panel) (Homo sapiens, UniProt P22455, N535K) (P22455 22-802 N535K): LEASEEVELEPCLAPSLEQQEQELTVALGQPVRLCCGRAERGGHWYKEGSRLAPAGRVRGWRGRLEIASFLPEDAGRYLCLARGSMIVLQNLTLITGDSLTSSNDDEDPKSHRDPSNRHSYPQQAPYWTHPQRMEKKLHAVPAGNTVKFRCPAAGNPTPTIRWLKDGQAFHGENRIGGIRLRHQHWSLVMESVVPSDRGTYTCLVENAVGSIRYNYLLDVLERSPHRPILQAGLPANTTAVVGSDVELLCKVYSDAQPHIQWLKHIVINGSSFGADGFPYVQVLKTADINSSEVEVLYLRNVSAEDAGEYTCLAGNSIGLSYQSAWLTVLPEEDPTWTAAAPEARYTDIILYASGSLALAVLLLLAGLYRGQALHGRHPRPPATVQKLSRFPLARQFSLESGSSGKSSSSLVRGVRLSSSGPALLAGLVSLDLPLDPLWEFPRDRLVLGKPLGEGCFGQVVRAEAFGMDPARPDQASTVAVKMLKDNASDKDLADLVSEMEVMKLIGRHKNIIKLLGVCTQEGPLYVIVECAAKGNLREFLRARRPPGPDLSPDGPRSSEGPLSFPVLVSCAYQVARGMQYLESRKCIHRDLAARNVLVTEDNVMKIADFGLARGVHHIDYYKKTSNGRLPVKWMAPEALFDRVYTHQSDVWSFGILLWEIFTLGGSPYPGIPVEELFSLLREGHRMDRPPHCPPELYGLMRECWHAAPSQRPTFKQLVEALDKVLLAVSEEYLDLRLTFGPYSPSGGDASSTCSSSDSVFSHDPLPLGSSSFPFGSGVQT

[5] = target: panel of more than 300 wild-type and mutant kinases (313 kinase panel) (Homo sapiens, UniProt P42685); settings: kinase FRK; compound at 1 μM
Chain of panel of more than 300 wild-type and mutant kinases (313 kinase panel) (Homo sapiens, UniProt P42685) (P42685 whole entry, change not shown): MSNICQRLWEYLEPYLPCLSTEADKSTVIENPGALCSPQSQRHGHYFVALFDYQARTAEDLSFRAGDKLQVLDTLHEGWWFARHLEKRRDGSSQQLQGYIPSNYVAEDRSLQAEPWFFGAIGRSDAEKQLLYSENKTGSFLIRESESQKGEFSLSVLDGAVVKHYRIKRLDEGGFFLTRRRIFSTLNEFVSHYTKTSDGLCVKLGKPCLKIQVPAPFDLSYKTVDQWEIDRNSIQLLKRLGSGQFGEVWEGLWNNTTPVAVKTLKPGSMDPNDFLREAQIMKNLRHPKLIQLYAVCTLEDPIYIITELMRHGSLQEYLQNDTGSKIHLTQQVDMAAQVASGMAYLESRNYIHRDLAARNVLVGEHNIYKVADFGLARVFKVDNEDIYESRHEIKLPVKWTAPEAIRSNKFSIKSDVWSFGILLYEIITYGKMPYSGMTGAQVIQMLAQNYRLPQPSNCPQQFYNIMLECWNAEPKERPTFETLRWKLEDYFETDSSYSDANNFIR

[6] = target: panel of more than 300 wild-type and mutant kinases (313 kinase panel) (Homo sapiens, UniProt P49760); settings: kinase CLK2; 1 μM compound
[7] = target: panel of more than 300 wild-type and mutant kinases (313 kinase panel) (Homo sapiens, UniProt Q07912); settings: kinase ACK; 1 μM compound
Chain of panel of more than 300 wild-type and mutant kinases (313 kinase panel) (Homo sapiens, UniProt Q07912) (Q07912 whole entry, change not shown): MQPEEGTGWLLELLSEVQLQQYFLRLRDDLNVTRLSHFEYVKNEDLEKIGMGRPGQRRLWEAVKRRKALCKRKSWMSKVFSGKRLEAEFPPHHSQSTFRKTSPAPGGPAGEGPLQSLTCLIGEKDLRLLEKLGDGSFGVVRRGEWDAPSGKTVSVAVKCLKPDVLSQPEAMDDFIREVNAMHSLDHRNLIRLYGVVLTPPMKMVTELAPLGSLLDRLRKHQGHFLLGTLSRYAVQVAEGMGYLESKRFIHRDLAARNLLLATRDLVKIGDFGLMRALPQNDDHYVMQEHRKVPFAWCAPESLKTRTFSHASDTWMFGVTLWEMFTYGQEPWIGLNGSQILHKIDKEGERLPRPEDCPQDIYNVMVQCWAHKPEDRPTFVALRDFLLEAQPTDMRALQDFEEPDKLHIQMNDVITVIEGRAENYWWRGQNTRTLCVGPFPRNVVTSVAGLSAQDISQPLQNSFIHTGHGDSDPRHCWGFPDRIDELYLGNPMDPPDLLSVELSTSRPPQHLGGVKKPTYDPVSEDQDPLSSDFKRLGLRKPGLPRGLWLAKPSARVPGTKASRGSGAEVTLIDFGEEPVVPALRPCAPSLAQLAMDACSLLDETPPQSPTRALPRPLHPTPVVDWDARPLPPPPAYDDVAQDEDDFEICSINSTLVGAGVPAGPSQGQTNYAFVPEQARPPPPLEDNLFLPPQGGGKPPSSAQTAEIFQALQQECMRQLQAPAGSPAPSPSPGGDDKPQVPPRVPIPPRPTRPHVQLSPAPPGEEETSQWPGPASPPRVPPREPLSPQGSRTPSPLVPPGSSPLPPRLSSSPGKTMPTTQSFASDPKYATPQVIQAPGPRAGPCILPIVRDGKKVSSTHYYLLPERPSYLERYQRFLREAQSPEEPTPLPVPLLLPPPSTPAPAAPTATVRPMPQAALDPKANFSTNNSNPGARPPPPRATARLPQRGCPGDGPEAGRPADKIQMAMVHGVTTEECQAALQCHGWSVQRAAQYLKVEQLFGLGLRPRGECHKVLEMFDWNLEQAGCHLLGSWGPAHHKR

[8] = target: panel of more than 300 wild-type and mutant kinases (313 kinase panel) (Homo sapiens, UniProt Q13554); settings: kinase CaMK2β; 1 μM compound
Chain of panel of more than 300 wild-type and mutant kinases (313 kinase panel) (Homo sapiens, UniProt Q13554) (Q13554 whole entry, change not shown): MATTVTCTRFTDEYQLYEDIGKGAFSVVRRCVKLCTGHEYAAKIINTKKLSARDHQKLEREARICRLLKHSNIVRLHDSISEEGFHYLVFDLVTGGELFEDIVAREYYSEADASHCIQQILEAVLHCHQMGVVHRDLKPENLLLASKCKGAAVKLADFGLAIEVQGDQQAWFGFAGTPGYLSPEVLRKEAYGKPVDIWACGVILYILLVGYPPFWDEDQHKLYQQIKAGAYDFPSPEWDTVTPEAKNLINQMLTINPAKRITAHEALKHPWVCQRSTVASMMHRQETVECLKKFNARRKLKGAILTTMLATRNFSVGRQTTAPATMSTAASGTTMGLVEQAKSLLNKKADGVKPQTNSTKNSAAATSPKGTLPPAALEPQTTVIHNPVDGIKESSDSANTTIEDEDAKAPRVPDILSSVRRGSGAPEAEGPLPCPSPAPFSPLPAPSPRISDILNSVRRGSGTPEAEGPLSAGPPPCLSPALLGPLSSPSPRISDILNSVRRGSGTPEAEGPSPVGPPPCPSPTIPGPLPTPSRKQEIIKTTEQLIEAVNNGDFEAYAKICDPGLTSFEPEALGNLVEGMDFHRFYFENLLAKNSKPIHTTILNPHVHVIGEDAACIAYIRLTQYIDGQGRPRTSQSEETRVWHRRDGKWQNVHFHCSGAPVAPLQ

[9] = target: T1, panel of more than 300 wild-type and mutant kinases (313 kinase panel) (Homo sapiens, UniProt Q16566); settings: kinase CaMK4; 1 μM compound
T1 sequence (Q16566 1-473): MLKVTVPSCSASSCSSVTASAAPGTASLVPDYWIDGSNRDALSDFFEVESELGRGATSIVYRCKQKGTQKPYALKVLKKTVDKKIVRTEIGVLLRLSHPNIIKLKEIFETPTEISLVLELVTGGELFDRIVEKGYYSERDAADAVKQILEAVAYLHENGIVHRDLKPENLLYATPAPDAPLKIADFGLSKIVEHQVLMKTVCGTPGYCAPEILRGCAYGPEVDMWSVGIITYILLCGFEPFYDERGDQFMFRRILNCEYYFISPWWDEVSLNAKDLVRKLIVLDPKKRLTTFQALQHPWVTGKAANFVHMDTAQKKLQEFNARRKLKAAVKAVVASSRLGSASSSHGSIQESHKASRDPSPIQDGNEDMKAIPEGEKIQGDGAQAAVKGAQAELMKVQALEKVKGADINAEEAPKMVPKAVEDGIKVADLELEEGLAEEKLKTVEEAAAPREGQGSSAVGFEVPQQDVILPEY

[10] = target: panel of more than 300 wild-type and mutant kinases (313 kinase panel) (Homo sapiens, UniProt Q86Z02); settings: kinase HIPK1; compound at 1 μM
[11] = target: T2, panel of more than 300 wild-type and mutant kinases (313 kinase panel) (Homo sapiens, UniProt Q9BZL6); settings: kinase PKD2; 1 μM
T2 sequence (Q9BZL6 1-878): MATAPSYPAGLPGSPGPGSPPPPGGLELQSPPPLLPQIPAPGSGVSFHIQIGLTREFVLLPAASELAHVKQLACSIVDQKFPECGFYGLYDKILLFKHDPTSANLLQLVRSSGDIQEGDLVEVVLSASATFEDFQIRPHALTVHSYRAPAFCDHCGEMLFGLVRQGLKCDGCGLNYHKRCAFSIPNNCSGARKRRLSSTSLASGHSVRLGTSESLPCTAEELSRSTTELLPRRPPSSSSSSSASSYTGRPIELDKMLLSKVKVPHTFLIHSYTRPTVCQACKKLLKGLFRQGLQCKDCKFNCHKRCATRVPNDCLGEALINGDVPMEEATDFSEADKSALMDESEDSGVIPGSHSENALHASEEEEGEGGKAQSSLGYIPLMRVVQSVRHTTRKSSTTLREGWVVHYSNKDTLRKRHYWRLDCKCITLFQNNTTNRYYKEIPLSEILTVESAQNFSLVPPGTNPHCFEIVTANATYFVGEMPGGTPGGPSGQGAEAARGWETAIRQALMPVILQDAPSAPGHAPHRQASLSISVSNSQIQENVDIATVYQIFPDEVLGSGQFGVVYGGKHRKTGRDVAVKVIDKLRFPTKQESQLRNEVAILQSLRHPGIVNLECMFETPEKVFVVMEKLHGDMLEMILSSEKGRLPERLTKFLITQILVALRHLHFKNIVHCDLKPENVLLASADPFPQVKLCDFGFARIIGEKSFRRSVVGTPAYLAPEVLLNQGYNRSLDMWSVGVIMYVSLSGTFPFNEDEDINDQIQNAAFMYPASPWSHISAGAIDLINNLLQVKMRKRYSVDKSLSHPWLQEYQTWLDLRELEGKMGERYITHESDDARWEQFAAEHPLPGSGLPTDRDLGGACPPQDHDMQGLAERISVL

[12] = target: panel of more than 300 wild-type and mutant kinases (313 kinase panel) (Homo sapiens, UniProt Q9Y3S1); settings: kinase WNK2; compound at 1 μM

For `CCCS(=O)(=O)Nc1ccc(F)c(C(=O)c2c[nH]c3ncc(-c4ccc(Cl)cc4)cc23)c1F` [vemurafenib], the “%-inhibition of MSK2” value [1] was -1%, the “%-inhibition of FMS” value [2] was 6% and the “%-inhibition of FER” value [3] was 11%. The “%-inhibition of FGFR4(N535K)” value [4] was 9%, the “%-inhibition of FRK” value [5] was 62% and the “%-inhibition, CLK2” value [6] was -13%. For the same compound, the “%-inhibition, ACK” value [7] was 40%, the “%-inhibition, CaMK2β” value [8] was -6.64% and the “%-inhibition, CaMK4” value [9] was -2.38%. The “%-inhibition of HIPK1” value [10] was -4.72%, the “%-inhibition of PKD2” value [11] was -13% and the “%-inhibition of WNK2” value [12] was 13%.
